Reference: US8637683B2, “Macrocyclic lactone derivatives for the treatment of cancer” (Piramal Enterprises Limited, priority 2009, dated 2014)
Values after ≈ are worked out from the molar mass of the structure shown. Values joined by “and” are separate entries in the source; they are usually repeats but may differ in a detail not shown here. Equal entries are not always repeated. Where two headings read alike, the source gives them in different places.

How the values were obtained:
[1] = tested on: OVXF 899L; assay: Monolayer assay (modified propidium iodide), OVXF 899L; format: cell-based, human; conditions: Ovarian, 4 days of treatment
Excerpt: (§1) Oncotest GmbH, Germany's proprietary tumor cell line panel comprises 40 cell lines. These cell lines were derived from 15 different tumor histotypes, each represented by 1 to 6 different cell lines. Cell lines were established from cancer of the bladder (3), colon (4), head and neck (1), lung (6), breast (3), pancreas (3), prostate (4), ovary (2), kidney (3), liver (1), stomach (1) and the uteri body (1), as well as from melanoma (3), sarcoma (2) and pleuramesothelioma (3). Out of these 40 cell lines, 24 cell lines were established at Oncotest, from patient-derived tumor xenografts. […]
(§2) Stock solutions of the test compounds (330 μg/mL in DMSO) were prepared and stored in small aliquots (200 μL) at −20° C. […] Each concentration was evaluated in triplicate. […]
(§3) Cells were plated in 96-well flat-bottom microtiter plates at a cell density of 4,000 to 10,000 cells/well. […] To measure the viable cell number, the remaining adherent cells were killed and permeabilized by repeated freezing and thawing and PI fluorescence was measured using the Cytofluor 4000 microplate reader (excitation λ=530 nm, emission λ=620 nm), which was a measure for the number of cells which survived treatment. […] IC-values were calculated based on the principle of linear two-point curve fit. […]

[2] = tested on: HT 29; assay: Monolayer assay (modified propidium iodide), HT 29; format: cell-based, human; conditions: HT 29, Colon, 4 days of treatment
Excerpt: as §1, §2, §3

[3] = tested on: RXF 1781L; assay: Monolayer assay (modified propidium iodide), RXF 1781L; format: cell-based, human; conditions: Renal, 4 days of treatment
Excerpt: as §1, §2, §3

[4] = tested on: T 24; assay: Monolayer assay (modified propidium iodide), T 24; format: cell-based, human; conditions: T 24, Bladder, 4 days of treatment
Excerpt: (§4) Oncotest GmbH, Germany's proprietary tumor cell line panel comprises 40 cell lines. These cell lines were derived from 15 different tumor histotypes, each represented by 1 to 6 different cell lines. Cell lines were established from cancer of the bladder (3), colon (4), head and neck (1), lung (6), breast (3), pancreas (3), prostate (4), ovary (2), kidney (3), liver (1), stomach (1) and the uteri body (1), as well as from melanoma (3), sarcoma (2) and pleuramesothelioma (3). Out of these 40 cell lines, 24 cell lines were established at Oncotest, from patient-derived tumor xenografts. The other 16 cell lines were either provided by the NCI (Bethesda; MD, USA) or were purchased from ATCC (Rockville, Md., USA) or DSMZ (Braunschweig, Germany).
Cell lines were routinely passaged once or twice weekly and maintained in culture for upto 20 passages. All cells were grown at 37° C. in a humidified atmosphere with 5% CO2 in RPMI 1640 medium supplemented with 10% (v/v) fetal calf serum (FCS) and 0.1 mg/mL gentamicin (medium and all other components from PAA, Cölbe, Germany). […]
as §2
as §3, with “treatment. Pharmacological effects on cell proliferation and survival were expressed as Test/Control×100 (% T/C) values, with T and C representing the fluorescence read-outs for wells with and without test compound, respectively, i.e. T/C represents the ratio of viable cell numbers following incubation of cell line with/without test compound.” for “treatment.”

[5] = tested on: panel of 40 human tumor cell lines; assay: Monolayer assay, panel of 40 human tumor cell lines; format: cell-based
Excerpt: as §4
Cell lines were routinely passaged once or twice weekly and maintained in culture for upto 20 passages. All cells were grown at 37° C. in a humidified atmosphere with 5% CO2 in RPMI 1640 medium supplemented with 10% (v/v) fetal calf serum (FCS) and 0.1 mg/mL gentamicin (medium and all other components from PAA, Cölbe, Germany). Authenticity of all cell lines was proven at the DSMZ by STR (short tandem repeat) analysis, a PCR based DNA-fingerprinting methodology.
Stock solutions of the test compounds (330 μg/mL in DMSO) were prepared and stored in small aliquots (200 μL) at −20° C. An aliquot of the stock solution was thawed on the day of use and stored at room temperature prior to and during dosing. The subsequent dilutions were done with complete RPMI 1640 cell culture medium as follows: the stock solution was diluted 1:22 followed by serial dilutions finally resulting in a (compared to the test concentration) 15-fold higher concentration. For the final dilution step (1:15), 10 μL/well of the respective compound solution was directly added to 140 μL/well culture medium. Test compounds were tested at […]. Each concentration was evaluated in triplicate.
A modified propidium iodide assay was used to assess the effect of the test compounds on the growth of the human tumor cell lines and was designed as in reference, Anti-cancer Drugs, 6, 522-532, (1995), the disclosure of which is incorporated by reference for the teaching of the assay.
Cells were plated in 96-well flat-bottom microtiter plates at a cell density of 4,000 to 10,000 cells/well. After a 24 h recovery period to allow the cells to resume exponential growth, the test compounds were applied at five concentrations in log increments in triplicates in two independent runs. After 4 days of treatment, the medium with/without test compounds including all floating (i.e., dead) cells was aspirated and replaced by 200 μL of an aqueous propidium iodide (PI) solution (7 μg/mL). To measure the viable cell number, the remaining adherent cells were killed and permeabilized by repeated freezing and thawing and PI fluorescence was measured using the Cytofluor 4000 microplate reader (excitation λ=530 nm, emission λ=620 nm), which was a measure for the number of cells which survived treatment. Pharmacological effects on cell proliferation and survival were expressed as Test/Control×100 (% T/C) values, with T and C representing the fluorescence read-outs for wells with and without test compound, respectively, i.e. T/C represents the ratio of viable cell numbers following incubation of cell line with/without test compound. Based on the T/C values IC50 and IC70 values, being the drug concentration necessary to inhibit cell growth by 50% (T/C=50%) and 70% (T/C=30%), respectively, were determined by plotting compound concentration versus cell viability (T/C). IC-values were calculated based on the principle of linear two-point curve fit. […]

Question: Which IC50 ([1]; Homo sapiens, 96 h) does the source give for `C/C=C/C(O)C(C)/C=C/C(=N\O)C(C)C(O)C(C)C1OC(=O)/C(OC)=C/C(C)=C/C(C)C(O)C(CC)C(O)C(C)C/C(C)=C/C=C/C1OC` (stereo not drawn) [Example 7, (3Z,5E,13E,15E)-18-((5Z,6E,10E)-3,9-Dihydroxy-5-(hydroxymino)-4,8-dimethyldodeca-6,10-dien-2-yl)-9-ethyl-8,10-dihydroxy-3,17-dimethoxy-5,7,11,13-tetramethyl oxacyclooctadeca-3,5,13,15-tetraen-2-one] here?
Answer: 8 ng/mL (≈ 11.6 nM)

Question: And the IC70 [1]?
Answer: 31.0 ng/mL (≈ 44.9 nM)

Question: And the IC70 [2]?
Answer: 0.9 ng/mL (≈ 1.3 nM)

Question: And the IC50 ([2]; Homo sapiens, 96 h)?
Answer: 0.4 ng/mL (≈ 0.58 nM)

Question: What about the IC50 ([3]; Homo sapiens, 96 h) of the same compound?
Answer: 7 ng/mL (≈ 10.1 nM)

Question: What about the IC70 [3] of the same compound?
Answer: 28.0 ng/mL (≈ 40.6 nM)

Question: And the IC50 ([4]; Homo sapiens, 96 h)?
Answer: < 0.1 ng/mL

Question: What about the IC70 [4] of the same compound?
Answer: 0.3 ng/mL (≈ 0.435 nM)

Question: What about the “activity in all cell lines as tested” value ([5]; 40 cell lines) of the same compound?
Answer: concentration-dependent activity

Question: What about the “tumor selectivity” value ([5]; 40 cell lines) of the same compound?
Answer: remarkable level of tumor selectivity

Question: What about the “Tumor selectivity: number of cell lines among the histotype with individual IC70 <mean IC70” value (“Tumor selectivity: number” for short) ([5]; Bladder) of the same compound?
Answer: 2 out of 3 and 2/3

Question: What about the “Tumor selectivity: number” value ([5]; Breast (mammary)) of the same compound?
Answer: 2/3 and 3/3

Question: What about the “Tumor selectivity: number” value ([5]; Colon) of the same compound?
Answer: 4/4

Question: And the IC50 ([5]; Homo sapiens, all 40 cell lines, read-out: IC50)?
Answer: < 1000 ng/mL

Question: What about the “Tumor selectivity: number” value ([5]; Lung) of the same compound?
Answer: 5/6

Question: What about the “Tumor selectivity: number” value ([5]; Melanoma) of the same compound?
Answer: 2/3

Question: What about the “Tumor selectivity: number” value ([5]; Pleurameso) of the same compound?
Answer: 1/3

Question: And the “Tumor selectivity: number” value ([5]; Prostate)?
Answer: 2/4

Question: And the IC70 ([5]; all 4 colon cancer cell lines)?
Answer: ≤ 5 ng/mL

Question: And the “Mean IC70” value ([5]; mean over panel of 40 human tumor cell lines)?
Answer: 9.1 ng/mL

Question: What about the IC50 ([5]; mean over panel of 40 human tumor cell lines, read-out: Mean IC50) of the same compound?
Answer: 1.1 ng/mL (≈ 1.59 nM)
